Source: patent publication US10138233B2, “Imidazole compounds as modulators of FSHR and uses thereof” (Merck Patent GmbH, priority 2013, dated 2018)
pEC50: −log10 of the molar value.

Biological target: T1, FSHR (Homo sapiens, UniProt P23945)
T1 construct: expressed in transfected cells; host or cells: CHO cells, clone Cho-FSHR-LUC-1-1-43
T1 sequence (P23945 18-695): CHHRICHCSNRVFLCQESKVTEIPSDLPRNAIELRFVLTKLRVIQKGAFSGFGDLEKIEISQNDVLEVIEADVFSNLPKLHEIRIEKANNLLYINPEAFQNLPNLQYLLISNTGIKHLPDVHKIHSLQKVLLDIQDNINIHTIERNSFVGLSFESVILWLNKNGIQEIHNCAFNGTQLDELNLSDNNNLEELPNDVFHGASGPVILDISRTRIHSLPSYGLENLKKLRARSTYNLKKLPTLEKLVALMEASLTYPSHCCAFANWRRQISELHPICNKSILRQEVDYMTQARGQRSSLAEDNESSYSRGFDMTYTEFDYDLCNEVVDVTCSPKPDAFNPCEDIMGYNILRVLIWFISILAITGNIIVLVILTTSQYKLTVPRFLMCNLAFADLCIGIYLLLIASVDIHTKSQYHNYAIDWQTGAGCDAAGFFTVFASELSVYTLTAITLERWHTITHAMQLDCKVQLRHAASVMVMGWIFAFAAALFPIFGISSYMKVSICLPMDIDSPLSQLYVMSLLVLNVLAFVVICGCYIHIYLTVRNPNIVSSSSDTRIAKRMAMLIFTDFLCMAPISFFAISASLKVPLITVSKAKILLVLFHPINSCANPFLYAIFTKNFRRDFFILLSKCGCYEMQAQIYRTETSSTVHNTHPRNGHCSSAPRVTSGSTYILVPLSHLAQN
Experiment: EC50 of cyclic AMP production in CHO FSHR cells + EC20 FSH (Assay A)
Assay type: cell-based
Settings: CHO-FSHR-LUC cells, in presence of EC20 FSH, cAMP HTRF, 1 h 37° C.
Procedure: EC50 of cyclic AMP production in CHO FSHR cells+EC20 FSH (Assay A)
2500 Cho-FSHR-LUC-1-1-43 cells were plated per well in 5 μl of phenol red free DMEM/F12+1% FBS. […] Cells were assayed by adding 100 μl of 2×EC20 FSH/IBMX in DMEM/F12+0.1% BSA) by Multidrop to 2 μl of test compound stamped in 384 well plates (compounds are diluted 1:50). […] The compound plate map was as follows: Column 1: 2 μl of DMSO; Column 2: 2 μl of DMSO; Columns 3-12 and 13-24: 2 μl of test compound, diluted 1:4 in 100% DMSO, or 2 μl of FSH, diluted 1:4 in DMEM/F12+0.1% BSA. The starting concentration for FSH was 50 nM (final concentration was 0.5 nM). […] 10 μl of mixed HTRF (CisBio #62AM4PEC) reagents were added per well and incubated at room temperature for 1 h. The plates were read on Envision using the cAMP HTRF—low volume 384 well protocol. […] Values given in percent (%) indicate the percental effect (response) at a certain concentration of agonist relative to the maximum response of the FSH standard.

Row | SMILES | pEC50
1 | COc1cc2c(cc1OC(C)C)-n1c(C3=CCCCO3)nc(C(=O)N3CCOCC3(C)C)c1CC2 [Compound 50] | 6.00 to 7.00
2 | COc1cc2c(cc1CC(C)C)-n1c(-c3cccs3)nc(C(=O)NCCNC(C)=O)c1CC2 [Compound 48, 8-Isobutyl-7-methoxy-1-thiophen-2-yl-4,5-dihydro-imidazo[1,5-a]quinoline-3-carboxylic acid (2-acetylamino-ethyl)-amide] | 5.30 to 6.00
3 | COc1cc2c(cc1OC(C)C)-n1c(-c3ccc(Cl)c(F)c3)nc(C(=O)N3CCOCC3(C)C)c1CC2 [Compound 109] | 6.00 to 7.00
4 | COc1cc2c(cc1OC(C)C)-n1c(C3CCCCO3)nc(C(=O)N3CCOCC3(C)C)c1CC2 (centres unmarked) [Compound 85, (3,3-Dimethyl-morpholin-4-yl)-[8-isopropoxy-7-methoxy-1-(tetrahydro-pyran-2-yl)-4,5-dihydro-imidazo[1,5-a]quinolin-3-yl]-methanone] | < 5.30
5 | COc1cc2c(cc1OC(C)C)-n1c(-c3cncn3C)nc(C(=O)N3CCOCC3(C)C)c1CC2 [Compound 47] | < 5.30
6 | COc1cc2c(cc1OC(C)C)-n1c(-c3sc(C)cc3C)nc(C(=O)N3CCOCC3(C)C)c1CC2 [Compound 99] | 6.00 to 7.00
7 | COc1cc2c(cc1-c1ccn(C)c1)-n1c(-c3cccs3)nc(C(=O)NC3(C)COC3)c1CC2 [Compound 98, 7-Methoxy-8-(1-methyl-1H-pyrrol-3-yl)-1-thiophen-2-yl-4,5-dihydro-imidazo[1,5-a]quinoline-3-carboxylic acid (3-methyl-oxetan-3-yl)-amide] | 5.30 to 6.00
8 | COc1cc2c(cc1OC(C)C)-n1c(-c3cc(C)nn3C)nc(C(=O)N3CCOCC3(C)C)c1CC2 [Compound 42] | 6.00 to 7.00
9 | COc1cc2c(cc1CC(C)C)-n1c(-c3cccs3)nc(C(=O)NC(C)(C)CO)c1CC2 [Compound 24, 8-Isobutyl-7-methoxy-1-thiophen-2-yl-4,5-dihydro-imidazo[1,5-a]quinoline-3-carboxylic acid (2-hydroxy-1,1-dimethyl-ethyl)-amide] | 5.30 to 6.00
10 | COc1cc2c(cc1OC(C)C)-n1c(-c3cncs3)nc(C(=O)N3CCCN(C(=O)N4CCC4)CC3)c1CC2 [Compound 9] | 5.30 to 6.00
11 | COc1cc2c(cc1OC(C)C)-n1c(-c3sccc3C)nc(C(=O)N3CCOCC3(C)C)c1CC2 [Compound 60] | 6.00 to 7.00
12 | COC(=O)c1nc(C(=O)N(C)C(C)(C)C)c2n1-c1cc(OC(C)C)c(OC)cc1CC2 [Compound 74, 3-(tert-Butyl-methyl-carbamoyl)-8-isopropoxy-7-methoxy-4,5-dihydro-imidazo[1,5-a]quinoline-1-carboxylic acid methyl ester] | 5.30 to 6.00
13 | COc1cc2c(cc1OC(C)C)-n1c(-c3cccc(F)c3)nc(C(=O)N(C)C(C)(C)C)c1CC2 [Compound 66] | 6.00 to 7.00
14 | COc1cc2c(cc1CC(C)C)-n1c(-c3sccc3C)nc(C(=O)N(C)C(C)(C)C)c1CC2 [Compound 146, 8-Isobutyl-7-methoxy-1-(3-methyl-thiophen-2-yl)-4,5-dihydro-imidazo[1,5-a]quinoline-3-carboxylic acid tert-butyl-methyl-amide] | 6.00 to 7.00
15 | COc1cc2c(cc1OC(C)C)-n1c(-c3c(C)nn(C)c3C)nc(C(=O)N3CCOCC3(C)C)c1CC2 [Compound 37] | < 5.30
16 | COc1cc2c(cc1OC(C)C)-n1c(-c3ccsc3)nc(C(=O)N(C)C(C)(C)C)c1CC2 [Compound 5] | 6.00 to 7.00
17 | COc1cc2c(cc1CC(C)C)-n1c(-c3ccsc3)nc(C(=O)N(C)C(C)(C)C)c1CC2 [Compound 18, 8-Isobutyl-7-methoxy-1-thiophen-3-yl-4,5-dihydro-imidazo[1,5-a]quinoline-3-carboxylic acid tert-butyl-methyl-amide] | 6.00 to 7.00
18 | COc1cc2c(cc1CC(C)C)-n1c(C3CCOC3)nc(C(=O)N(C)C(C)(C)C)c1CC2 (centres unmarked) [Compound 94, N-(tert-butyl)-8-isobutyl-7-methoxy-N-methyl-1-(tetrahydrofuran-3-yl)-4,5-dihydroimidazo[1,5-a]quinoline-3-carboxamide] | 5.30 to 6.00

Row | SMILES | pEC50
19 | COc1cc2c(cc1OC(C)C)-n1c(-c3cc(Cl)ccc3OC(F)(F)F)nc(C(=O)N3CCOCC3(C)C)c1CC2 [Compound 117] | 5.30 to 6.00
20 | COc1cc2c(cc1OC(C)C)-n1c(C3=CCCC3(C)C)nc(C(=O)N3CCOCC3(C)C)c1CC2 [Compound 100] | > 7.00
21 | COc1cc2c(cc1CC(C)C)-n1c(-c3ccn(C)n3)nc(C(=O)N3CCOCC3(C)C)c1CC2 [Compound 29, (3,3-Dimethyl-morpholin-4-yl)-[8-isobutyl-7-methoxy-1-(1-methyl-1H-pyrazol-3-yl)-4,5-dihydro-imidazo[1,5-a]quinolin-3-yl]-methanone] | 6.00 to 7.00
22 | COc1cc2c(cc1CC(C)C)-n1c(-c3cc[nH]c3)nc(C(=O)N3CCOCC3(C)C)c1CC2 [Compound 28, (3,3-Dimethyl-morpholin-4-yl)-[8-isobutyl-7-methoxy-1-(1H-pyrrol-3-yl)-4,5-dihydro-imidazo[1,5-a]quinolin-3-yl]-methanone] | 6.00 to 7.00
23 | COc1cc2c(cc1-c1ccn(C)n1)-n1c(-c3ccn(C)c3)nc(C(=O)N3CCOCC3(C)C)c1CC2 [Compound 73, (3,3-Dimethyl-morpholin-4-yl)-[7-methoxy-8-(1-methyl-1H-pyrazol-3-yl)-1-(1-methyl-1H-pyrrol-3-yl)-4,5-dihydro-imidazo[1,5-a]quinolin-3-yl]-methanone] | < 5.30
24 | COc1cc2c(cc1CC(C)C)-n1c(-c3cccs3)nc(C(=O)N3CCCC34COC4)c1CC2 [Compound 57, (8-Isobutyl-7-methoxy-1-thiophen-2-yl-4,5-dihydro-imidazo[1,5-a]quinolin-3-yl)-(2-oxa-5-aza-spiro[3.4]oct-5-yl)-methanone] | 5.30 to 6.00
25 | COc1cc2c(cc1OC(C)C)-n1c(-c3cn(C)nc3C)nc(C(=O)N3CCOCC3(C)C)c1CC2 [Compound 36] | < 5.30
26 | COc1cc2c(cc1OC(C)C)-n1c(-c3cc(Cl)c(F)cc3F)nc(C(=O)N3CCOCC3(C)C)c1CC2 [Compound 113] | 5.30 to 6.00
27 | COc1cc2c(cc1OC(C)C)-n1c(-c3ccc(F)s3)nc(C(=O)N(C)C(C)(C)C)c1CC2 [Compound 14] | > 7.00
28 | [2H]C([2H])([2H])OC1CCN(C(=O)c2nc(-c3cccs3)n3c2CCc2cc(OC)c(CC(C)C)cc2-3)C1 (centres unmarked) [Compound 33, (8-Isobutyl-7-methoxy-1-thiophen-2-yl-4,5-dihydro-imidazo[1,5-a]quinolin-3-yl)-(3-methoxy-d3-pyrrolidin-1-yl)-methanone] | < 5.30
29 | COc1cc2c(cc1-c1cccnc1)-n1c(-c3ccsc3)nc(C(=O)N(C)C(C)(C)C)c1CC2 [Compound 8, 7-Methoxy-8-pyridin-3-yl-1-thiophen-3-yl-4,5-dihydro-imidazo[1,5-a]quinoline-3-carboxylic acid tert-butyl-methyl-amide] | > 7.00
30 | COc1cc2c(cc1OC(C)C)-n1c(-c3cnn(C4CCC4)c3)nc(C(=O)N3CCOCC3(C)C)c1CC2 [Compound 80] | < 5.30
31 | COc1cc2c(cc1-c1n[nH]c(=O)o1)-n1c(-c3cccs3)nc(C(=O)N(C)C(C)(C)C)c1CC2 [Compound 132, 7-Methoxy-8-(5-oxo-4,5-dihydro-[1,3,4]oxadiazol-2-yl)-1-thiophen-2-yl-4,5-dihydro-imidazo[1,5-a]quinoline-3-carboxylic acid tert-butyl-methyl-amide] | 6.00 to 7.00
32 | COC(=O)c1nc(C(=O)N2CCOCC2(C)C)c2n1-c1cc(OC(C)C)c(OC)cc1CC2 [Compound 144, 3-(3,3-Dimethyl-morpholine-4-carbonyl)-8-isopropoxy-7-methoxy-4,5-dihydro-imidazo[1,5-a]quinoline-1-carboxylic acid methyl ester] | 5.30 to 6.00
33 | COc1cc2c(cc1OC(C)C)-n1c(-c3cc(F)ccc3OC)nc(C(=O)N3CCOCC3(C)C)c1CC2 [Compound 104] | 5.30 to 6.00
34 | COc1cc2c(cc1OC(C)C)-n1c(C#N)nc(C(=O)N3CCOCC3(C)C)c1CC2 [Compound 145, 3-(3,3-Dimethyl-morpholine-4-carbonyl)-8-isopropoxy-7-methoxy-4,5-dihydro-imidazo[1,5-a]quinoline-1-carbonitrile] | < 5.30
35 | COc1cc2c(cc1OC(C)C)-n1c(-c3cc(F)ccc3F)nc(C(=O)N3CCOCC3(C)C)c1CC2 [Compound 127] | 6.00 to 7.00
